In US12398154B2, “Azaquinazoline pan-KRas inhibitors” (Mirati Therapeutics, Inc., priority 2020, dated 2025) one finds IC50 data, which are given here for eight compounds.

Assay [1] has as its target KRas WT (Homo sapiens, UniProt P01116). Description: biochemical.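 Note: binding to KRas read as TR-FRET displacement after a one-hour room-temperature incubation, IC50 derived from percent-of-control values.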
Procedure: (§2) The ability of a compound to bind to KRas was measured using a TR-FRET displacement assay. […] After a 60-minute incubation at room temperature, the reaction was measured using a BMG LABTECH CLARIO star Plus via TR-FRET. […] The POC values were fit to a 4-parameter IC50 equation and the IC50 value reported.
The target in assay [2] is T1, KRas G13D (Homo sapiens, UniProt P01116, G13D).
T1 construct: Biotinylated KRas (corresponding to amino acids 1-169, produced at Accelegan Inc.); biotin (biotinylated); purchased Accelegan Inc
Briefly: KRas binding assay (TR-FRET displacement).
Procedure: as §2

Assay [3] addresses KRas G12A (Homo sapiens, UniProt P01116, G12A). Briefly: biochemical.
Procedure: as §2
Assay [4] concerns the target KRas G12D (Homo sapiens, UniProt P01116, G12D). Description: biochemical.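 Note: TR-FRET displacement binding assay on KRas, read after a one-hour incubation at room temperature, IC50 fitted from percent-of-control values.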
Procedure: as §2
Assay [5] has as its system phospho-ERK in HCT116 (G13D) cells. Description: Inhibition of KRas-mediated phosphorylation of ERK (in-cell western). The format is cell-based. Conditions: Homo sapiens, HCT-116, 3 hours compound, phospho-ERK normalized to GAPDH. Put shortly: (§1)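 Cells treated 3 h with compounds (0.5% DMSO), fixed in formaldehyde and methanol-permeabilized. In-cell western for phospho-ERK (Thr202/Tyr204) normalized to GAPDH, as % of DMSO control; IC50 by 4-parameter fit.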

The test system of assay [6] is phospho-ERK in A549 (G12S) cells. The description is as above. Conditions: Homo sapiens, 3 hours compound, phospho-ERK normalized to GAPDH. It is filed as cell-based. Summed up:
as §1

For assay [7], the system named is phospho-ERK in NCI-H460 (Q61H) cells. The description is as above. It is filed as cell-based. The following applies: Homo sapiens, NCI-H460, 3 h, 3 hours compound, phospho-ERK normalized to GAPDH. Summed up:
as §1

Assay [8] deals with phospho-ERK in NCI-H727 (G12V) cells. Described as above. Conditions: Homo sapiens, NCI-H727, 3 h, 3 hours compound, phospho-ERK normalized to GAPDH. The format is cell-based. Put shortly: as §1
Assay [9] concerns phospho-ERK in NCI-H358 (G12C) cells. Described as above. The format is cell-based. Conditions: Homo sapiens, 3 hours compound, phospho-ERK normalized to GAPDH. Put shortly:
as §1

The test system of assay [10] is phospho-ERK in AsPC-1 (G12D) cells. The assay is described as above. The following applies: Homo sapiens, ASPC1, 3 h, 3 hours compound, phospho-ERK normalized to GAPDH. It is filed as cell-based. Put shortly: as §1
The subject of assay [11] is phospho-ERK in MKN1 (WTdep) cells. The description is as above. The format is cell-based. The following applies: Homo sapiens, MKN-1, 3 hours compound, phospho-ERK normalized to GAPDH. Summed up: as §1
Assay [12] deals with phospho-ERK in PSN-1 (G12R) cells. The description is as above. It is filed as cell-based. The following applies: Homo sapiens, PSN1, 3 hours compound, phospho-ERK normalized to GAPDH. Put shortly: as §1
Assay [13] concerns the target KRas G12R (Homo sapiens, UniProt P01116, G12R). Briefly: biochemical.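 Note: TR-FRET displacement assay of compound binding to KRas, read after one hour at room temperature, potency from a four-parameter fit of percent-of-control values.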
Procedure: as §2
In assay [14] the target is KRas G12C (Homo sapiens, UniProt P01116, G12C). Briefly: biochemical.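 Note: binding to KRas assessed by TR-FRET displacement after one hour incubation at room temperature, potency fitted from percent-of-control values.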
Procedure: as §2
For assay [15], the target named is KRas G12S (Homo sapiens, UniProt P01116, G12S). Description: biochemical.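 Note: TR-FRET displacement binding to KRas, read after one hour incubation at room temperature, IC50 from four-parameter fit of percent of control.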
Procedure: as §2
The target in assay [16] is KRas G12V (Homo sapiens, UniProt P01116, G12V). Briefly: biochemical.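 Note: KRas binding measured by TR-FRET displacement at room temperature, IC50 fitted from percent of control values.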
Procedure: as §2
The target of assay [17] is T2, KRas Q61H (Homo sapiens, UniProt P01116, Q61H).
T2 construct: Biotinylated KRas (corresponding to amino acids 1-169, produced at Accelegan Inc.); biotin (biotinylated); purchased Accelegan Inc
Briefly: KRas binding assay (TR-FRET displacement). A general note: Time-resolved FRET reads energy transfer from a long-lived donor to a nearby acceptor.
Procedure: as §2

The subject of assay [18] is pERK in ASPC1 cells. Briefly: Inhibition of KRas phosphorylation of ERK (Cisbio HTRF pERK assay). The following applies: Homo sapiens, ASPC1, read-out: Inhibition (HTRF IC50) of KRas-mediated Phosphorylation of ERK, AsPC-1.
For assay [19], the system named is pERK in H727 cells. The description is as above. Conditions: Homo sapiens, NCI-H727, read-out: Inhibition (HTRF IC50) of KRas-mediated Phosphorylation of ERK, H727.
The subject of assay [20] is pERK in PSN1 cells. Described as above. The following applies: Homo sapiens, PSN1, 3 h, read-out: Inhibition (HTRF IC50) of KRas-mediated Phosphorylation of ERK, PSN1.
For assay [21], the system named is pERK in MKN1 cells. The description is as above. Conditions: Homo sapiens, MKN-1, 3 h, read-out: Inhibition (HTRF IC50) of KRas-mediated Phosphorylation of ERK, MKN1.
Assay [22] deals with pERK in HCT116 cells. Described as above. The following applies: Homo sapiens, HCT-116, read-out: Inhibition (HTRF IC50) of KRas-mediated Phosphorylation of ERK, HCT116.

KRas G12C, sequence (P01116 1-169 isoform P01116-2 G12C): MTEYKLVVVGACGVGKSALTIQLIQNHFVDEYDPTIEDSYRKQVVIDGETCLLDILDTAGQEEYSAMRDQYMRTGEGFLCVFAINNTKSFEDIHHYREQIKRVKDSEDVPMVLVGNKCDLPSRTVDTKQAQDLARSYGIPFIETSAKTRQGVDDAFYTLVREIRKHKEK
KRas G12S, sequence (P01116 1-169 isoform P01116-2 G12S): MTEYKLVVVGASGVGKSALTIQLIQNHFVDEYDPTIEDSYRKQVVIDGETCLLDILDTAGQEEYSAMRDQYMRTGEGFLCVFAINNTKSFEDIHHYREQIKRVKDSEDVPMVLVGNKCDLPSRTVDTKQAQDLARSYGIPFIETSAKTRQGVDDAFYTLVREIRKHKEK
KRas G12V, sequence (P01116 1-169 isoform P01116-2 G12V): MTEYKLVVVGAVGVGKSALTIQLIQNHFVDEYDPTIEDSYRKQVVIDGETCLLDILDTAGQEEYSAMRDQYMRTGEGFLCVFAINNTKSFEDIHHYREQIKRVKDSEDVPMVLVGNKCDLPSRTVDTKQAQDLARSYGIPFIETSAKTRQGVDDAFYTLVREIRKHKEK
KRas WT, sequence (P01116 1-169 isoform P01116-2): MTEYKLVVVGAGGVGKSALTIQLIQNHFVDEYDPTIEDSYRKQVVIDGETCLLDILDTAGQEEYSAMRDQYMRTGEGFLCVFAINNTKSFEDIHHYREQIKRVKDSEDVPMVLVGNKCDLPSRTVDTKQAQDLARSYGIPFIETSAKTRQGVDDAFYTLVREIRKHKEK
KRas G12R, sequence (P01116 1-169 isoform P01116-2 G12R): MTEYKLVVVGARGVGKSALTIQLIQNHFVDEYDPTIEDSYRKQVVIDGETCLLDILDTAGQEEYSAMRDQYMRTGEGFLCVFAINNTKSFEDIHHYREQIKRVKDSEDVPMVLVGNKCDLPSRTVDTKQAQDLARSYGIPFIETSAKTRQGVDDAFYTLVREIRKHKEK
KRas G12D, sequence (P01116 1-169 isoform P01116-2 G12D): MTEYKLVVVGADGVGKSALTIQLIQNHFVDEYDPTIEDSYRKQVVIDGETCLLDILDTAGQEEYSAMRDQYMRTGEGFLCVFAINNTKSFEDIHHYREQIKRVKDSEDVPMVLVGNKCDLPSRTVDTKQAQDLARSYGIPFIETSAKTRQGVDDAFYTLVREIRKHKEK
KRas G12A, sequence (P01116 1-169 isoform P01116-2 G12A): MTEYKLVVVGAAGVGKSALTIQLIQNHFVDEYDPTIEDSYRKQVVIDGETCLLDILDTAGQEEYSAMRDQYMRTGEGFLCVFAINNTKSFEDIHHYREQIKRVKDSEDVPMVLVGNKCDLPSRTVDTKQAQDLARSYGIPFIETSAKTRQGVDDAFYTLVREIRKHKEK
T1 sequence (P01116 1-169 isoform P01116-2 G13D): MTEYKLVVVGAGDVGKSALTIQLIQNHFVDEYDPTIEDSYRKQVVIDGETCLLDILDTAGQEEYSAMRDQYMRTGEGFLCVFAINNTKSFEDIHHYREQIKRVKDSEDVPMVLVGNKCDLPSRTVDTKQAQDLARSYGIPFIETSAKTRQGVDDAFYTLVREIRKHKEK
T2 sequence (P01116 1-169 isoform P01116-2 Q61H): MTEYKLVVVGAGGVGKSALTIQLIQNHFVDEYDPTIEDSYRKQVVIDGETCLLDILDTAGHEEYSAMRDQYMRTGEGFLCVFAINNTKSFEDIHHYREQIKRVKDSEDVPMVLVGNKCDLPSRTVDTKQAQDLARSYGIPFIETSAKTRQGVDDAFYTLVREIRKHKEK

As to `CCc1c(F)ccc2cccc(-c3ncc4c(N5CCC[C@@](C)(O)C5)nc(OCC56CCCN5CCC6)nc4c3F)c12` [Example 15], the IC50 (commonly the concentration at which inhibition is half-maximal) in [1] amounted to 41 nM; in assay [2] it was 42 nM; in assay [3], 38 nM; in assay [4], 24 nM; in assay [5], 5160 nM; in [6] it was 3640 nM. Also, the IC50 in assay [7] was at least 10000 nM; in assay [8], at least 10000 nM; in assay [9], 495 nM; in assay [10] it was 731 nM; in [11] it was 1260 nM; in [12], at least 10000 nM. Besides, the IC50 in assay [13] is 81 nM; in assay [14], 37 nM; in [15], 42 nM; in assay [16] it was 42 nM; in assay [17], 52 nM.

Turning to `C#Cc1c(F)ccc2cccc(-c3ncc4c(N5CCC[C@@](C)(O)C5)nc(OCC56CCCN5CCC6)nc4c3F)c12` [Example 14, (R)-1-(7-(8-ethynyl-7-fluoronaphthalen-1-yl)-8-fluoro-2-((hexahydro-1H-pyrrolizin-7a-yl)methoxy)pyrido[4,3-d]pyrimidin-4-yl)-3-methylpiperidin-3-ol], the IC50 is 51 nM in [1]; 61 nM in [2]; 58 nM in assay [3]; 29 nM in [4]; 1590 nM in assay [5]; at least 10000 nM in assay [6]. For the same compound, the IC50 in assay [7] was at least 10000 nM; in [8] it was 4580 nM; in assay [9], 725 nM; in assay [10], 847 nM; in [11], 1380 nM; in assay [12], at least 10000 nM. The IC50 came to 109 nM in assay [13]; 51 nM in assay [14]; 58 nM in assay [15]; 52 nM in assay [16]; 80 nM in assay [17].

In the case of `CC1(O)CCCN(c2nc(OCC34CCCN3CCC4)nc3c(F)c(-c4cc(O)cc(Cl)c4C4CC4)ncc23)C1` (stereo not shown) [Example 71, 1-(7-(3-chloro-2-cyclopropyl-5-hydroxyphenyl)-8-fluoro-2-((tetrahydro-1H-pyrrolizin-7a(5H)-yl)methoxy)pyrido[4,3-d]pyrimidin-4-yl)-3-methylpiperidin-3-ol], the IC50 in assay [4] is 3 nM; in assay [5], 1950 nM; in [6] it was at least 10000 nM; in [7], 2170 nM; in [8], 2240 nM; in assay [9] it was 361 nM. Besides, the IC50 in [10] was 4730 nM; in assay [11] it was 140 nM; in [12] it was at least 10000 nM; in assay [18], 2100 nM; in assay [13], 6 nM; in [16], at most 2 nM. Moreover, the concentration for half-maximal inhibition (IC50) in [19] was 1920 nM.

Turning to `C#Cc1c(F)ccc2cc(O)cc(-c3ncc4c(N5CCCC6(CNC(=O)C6)C5)nc(OC[C@@]56CCCN5C[C@H](F)C6)nc4c3F)c12` (stereo partly shown) [Example 24], the IC50 is at most 2 nM in assay [1]; at most 2 nM in [3]; at most 2 nM in [4]; 1370 nM in assay [5]; at least 10000 nM in [6]; 2820 nM in assay [7]. Moreover, the IC50 in assay [8] was 4720 nM; in assay [9], 454 nM; in assay [10] it was 1680 nM; in [11], 406 nM; in assay [12] it was 3690 nM; in assay [13], at most 2 nM. Further, the IC50 in assay [14], in assay [15] and in assay [16] was at most 2 nM in each case.

In the case of `C[C@@H]1C[C@@H]1c1c(Cl)cc(O)cc1-c1ncc2c(N3CCCC(C)(O)C3)nc(OCC34CCCN3CCC4)nc2c1F` (stereo partly drawn) [Example 132, 1-(7-(3-chloro-5-hydroxy-2-((1S,2R)-2-methylcyclopropyl)phenyl)-8-fluoro-2-((tetrahydro-1H-pyrrolizin-7a(5H)-yl)methoxy)pyrido[4,3-d]pyrimidin-4-yl)-3-methylpiperidin-3-ol], the IC50 in [4] is 9 nM; in [5], at least 10000 nM; in assay [6] it was at least 10000 nM; in [7] it was 206 nM; in assay [8] it was at least 10000 nM; in assay [9], 131 nM. In addition, the IC50 is 104 nM in assay [10]; 27 nM in [11]; at least 10000 nM in assay [12]; 623 nM in assay [18]; 6 nM in [13]; 5 nM in [16]. Besides, the IC50 in assay [19] turned out to be 912 nM.

On to `CCc1c(F)ccc2cccc(-c3ncc4c(N5CCC[C@@](C)(O)C5)nc(OC[C@@]56CCCN5C[C@H](F)C6)nc4c3F)c12` [Example 16, (R)-1-(7-(8-ethyl-7-fluoronaphthalen-1-yl)-8-fluoro-2-(((2R,7aS)-2-fluorohexahydro-1H-pyrrolizin-7a-yl)methoxy)pyrido[4,3-d]pyrimidin-4-yl)-3-methylpiperidin-3-ol], for which the IC50 was at least 10 µM in assay [20]; 275 nM in assay [21]; 2180 nM in assay [5]; 1760 nM in assay [6]; 113 nM in [7]; at least 10000 nM in [8]. The IC50 was 1180 nM in assay [9], 654 nM in [10], 802 nM in assay [11] and at least 10000 nM in assay [12].

With `CCc1c(F)ccc2cc(O)cc(-c3ncc4c(N5CCCC6(CNC(=O)N6)C5)nc(OC[C@@]56CCCN5C[C@H](F)C6)nc4c3F)c12` (stereo partly shown) [Example 133], the IC50 in assay [22] is 360 nM; in assay [4], at most 2 nM; in assay [5], 650 nM; in assay [6] it was 55 nM; in assay [7], 49 nM; in [8], 612 nM. Besides, the IC50 was 41 nM in [9]; 156 nM in [10]; 171 nM in assay [11]; at least 10000 nM in assay [12]; 144 nM in [18]; at most 2 nM in assay [13]. For the same compound, the IC50 was at most 2 nM in [16] and 246 nM in assay [19].

In the case of `CCc1c(F)ccc2cc(O)cc(-c3ncc4c(NCCC(N)=O)nc(OC[C@@]56CCCN5C[C@H](F)C6)nc4c3F)c12` [Example 141], the IC50 in assay [4] was at most 2 nM; in [5], at least 10000 nM; in assay [6], 875 nM; in [7], 1110 nM; in assay [8] it was at least 10000 nM; in assay [9] it was 88 nM. Also, the IC50 in assay [10] was 210 nM; in [11], 282 nM; in assay [12] it was at least 10000 nM; in [18] it was 641 nM; in assay [13], at most 2 nM; in [16], at most 2 nM. Moreover, the 50% inhibitory concentration (IC50) in assay [19] amounted to 2130 nM.
